Assay results from patent US7109176B2, “Nonsteroidal anti-inflammatory substances, compositions and methods for their use” (Pliva-Istrazivacki Institut D.o.o., priority 2002, dated 2006).

Columns and labels:
[1] = system: TNF-α; assay: Determination of TNF-α secretion in LPS-stimulated mononuclear cells of human peripheral blood in vitro (ELISA); type: cell-based; settings: human PBMC, LPS 1 μg/mL, 18 to 24 hours, TNF-α in supernatant by ELISA
Procedure: Determination of TNF-α and IL-1β Secretion in Mononuclear Cells of Human Peripheral Blood In Vitro
Peripheral blood mononuclear cells (PMBC) were prepared from heparinized whole blood after separation of PMBC on Ficoll-Hypaque (Amersham-Pharmacia). For the determination of TNF-α level, 3.5-5×10^4 cells were cultured in a total volume of 200 μl within a period of 18 to 24 hours on microtiter flat bottom plates (96 wells, Falcon) in RPMI 1640 medium supplemented with 10% of heat-inactivated human AB serum (Croatian Centre For Transfusion Medicine, Zagreb), 100 units/mL of penicillin, […] and 20 mM HEPES (Invitrogen Life Technologies). The cells were incubated at 37° C. in an atmosphere with 5% CO2 and 90% moisture. The cells in a negative control were cultured only in the medium (NC), while the secretion of TNF-α in a positive control was stimulated by the addition of 1 μg/mL lipopolysaccharide (LPS, E. coli serotype 0111:B4, SIGMA) (PC) and the effect of the tested substances on TNF-α secretion was tested after their addition to cell cultures stimulated with LPS (TS). […] The test sensitivity was <3 pg/mL TNF-α. The determination of IL-1β level was performed as described for TNF-α determination, only that 1×10^5 cells/well and 0.1 ng/mL of LPS were used. IL-1β level was determined by ELISA (R&D Systems). […] IC-50 was calculated using Graph Pad Prism Software. Determination of TNF-α Secretion by RAW 264.7 Cells

[2] = molecular target: T1, Human Prostaglandin-H Synthase—1 (hPGH-1) (Homo sapiens, UniProt P23219); assay: Human prostaglandin-H synthase-1 (hPGH-1) inhibition assay in transfected COS-7 cells (PGE-2 readout); type: cell-based; settings: COS-7 cells transfected with hPGH-1, arachidonic acid 20 μM, PGE-2 measured
T1 construct: expressed in transfected cells; host or cells: COS-7 cells (ATCC), transient transfection with Lipofectamine 2000
Procedure: (§1) The cells were grown in 10% fetal bovine serum (FBS) in DMEM medium (Invitrogen Life Technologies) at 37° C. in an atmosphere with 5% CO2 and 90% moisture. 20 000 cells/well were plated in 96 well plate (Falcon). The cells in a negative control were cultured only in the medium (NC), while the secretion of TNF-α in a positive control was stimulated by the addition of 500 pg/mL lipopolysaccharide (LPS, E. coli serotype 0111:B4, SIGMA) (PC) and the effect of the tested substances on TNF-α secretion was tested after their addition to cell cultures stimulated with LPS (TS). […] Human Prostaglandin-H Synthase—1 (hPGH-1) and Human Prostaglandin-H Synthase—2 (hPGH-2) Inhibition Assay
(§2) Genes coding hPGH-1 and hPGH-2 were amplified with PCR using Platinum pfx DNA polymerase (Invitrogen Life Technologies) from human placenta cDNA library (Stratagene). Primer sequences used for hPGH-1 are: • 5′ […] 3′ (SEQ ID NO: 1) and • 5′ […] 3′ (SEQ ID NO: 2); for hPGH-2 • 5′ […] 3′ (SEQ ID NO: 3) and • 5′ […] 3′ (SEQ ID NO: 4). PCR products were cloned into HindIII and BamHI restriction sites of pcDNA3.1 (Hygro(+) plasmid (Invitrogen Life Technologies), sequences were confirmed by sequencing.
(§3) Transfection was performed on COS-7 cells (ATCC), cells were grown in 10% foetal bovine serum (FBS) in DMEM medium (Invitrogen Life Tecnologies), 37° C. in an atmosphere with 5% CO2 and 90% moisture, to full confluency in 24 well plate (Falcon). 1 μg plasmid DNA (pcDNA Hygro 3.1 (+) containing PGH-1 or PGH-2 gene, or pcDNA Hygro 3.1 (+) for negative control samples) was combined with 1,5 μl Lipofectamine 2000 (Invitrogen Life Technologies), following manufacturer's recommendations. […] After 30 minutes supernatants were removed and PGE-2 was measured with PGE-2 assay kit (Cayman) following manufacturer's instructions.
(§4) % inhibition was calculated by the following equation: % inhibition=(1−sample PGE-2 concentration/positive control PGE-2 concentration)*100 In Vivo Model of LPS-Induced Exccessive Secretion of TNF-α in Mice

[3] = molecular target: T2, Human Prostaglandin-H Synthase—2 (hPGH-2) (Homo sapiens, UniProt P35354); assay: Human prostaglandin-H synthase-2 (hPGH-2) inhibition assay in transfected COS-7 cells (PGE-2 readout); type: cell-based; settings: COS-7 cells transfected with hPGH-2, arachidonic acid 20 μM, PGE-2 measured
T2 construct: expressed in transfected cells; host or cells: COS-7 cells (ATCC), transient transfection with Lipofectamine 2000
T2 sequence (P35354 18-604): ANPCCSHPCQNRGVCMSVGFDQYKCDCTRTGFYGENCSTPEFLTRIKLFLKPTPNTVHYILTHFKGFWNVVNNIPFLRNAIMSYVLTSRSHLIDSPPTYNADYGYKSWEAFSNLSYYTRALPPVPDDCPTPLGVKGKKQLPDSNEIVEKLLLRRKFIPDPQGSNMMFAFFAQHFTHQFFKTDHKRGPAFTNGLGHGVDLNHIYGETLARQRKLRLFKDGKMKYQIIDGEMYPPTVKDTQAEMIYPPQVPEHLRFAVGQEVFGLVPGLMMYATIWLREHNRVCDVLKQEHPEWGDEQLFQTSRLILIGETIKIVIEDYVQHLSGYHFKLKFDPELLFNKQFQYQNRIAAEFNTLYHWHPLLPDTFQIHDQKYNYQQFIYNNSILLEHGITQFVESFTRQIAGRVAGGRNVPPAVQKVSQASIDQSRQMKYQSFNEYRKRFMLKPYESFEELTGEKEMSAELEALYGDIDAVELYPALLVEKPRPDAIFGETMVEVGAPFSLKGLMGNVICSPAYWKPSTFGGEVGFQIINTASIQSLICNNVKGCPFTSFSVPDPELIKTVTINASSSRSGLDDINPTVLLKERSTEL
Procedure: as §1, §2, §3, §4

[4] = system: TNF-α; assay: In vivo model of LPS-induced excessive secretion of TNF-α in mice; settings: male BALB/c mice, substance p.o. 30 minutes prior to i.p. LPS 25 μg/animal, plasma TNF-α two hours later; dose not given
Procedure: as §4
TNF-α secretion in mice was induced according to the previously described method (Badger A. M. Et al., J. of Pharmac. and Env. Therap. 279 1996 1453-1461). In the test, male BALB/c mice at an age of 8 to 12 weeks in groups of 6 to 10 animals were used. Animals were treated p.o. either only with the solvent (in a negative and a positive control) or with solutions of the substance 30 minutes prior to the i.p. treatment with LPS (E. coli serotype 0111:B4, Sigma) in a dose of 25 μg/animal. Two hours later the animals were euthanized by means of i.p. injection of Roumpun (Bayer) and Ketanest (Park-Davis). […] The TNF-α level in the plasma was determined by ELISA (Biosource, R&D Systems) according to the process prescribed by the manufacturer. The test sensitivity was <3 pg/mL TNF-α. The percentage inhibition of TNF-α production was calculated by the following equation: % inhibition=[1−(TS—NC)/(PC—NC)]*100

T1 sequence (P23219 24-599): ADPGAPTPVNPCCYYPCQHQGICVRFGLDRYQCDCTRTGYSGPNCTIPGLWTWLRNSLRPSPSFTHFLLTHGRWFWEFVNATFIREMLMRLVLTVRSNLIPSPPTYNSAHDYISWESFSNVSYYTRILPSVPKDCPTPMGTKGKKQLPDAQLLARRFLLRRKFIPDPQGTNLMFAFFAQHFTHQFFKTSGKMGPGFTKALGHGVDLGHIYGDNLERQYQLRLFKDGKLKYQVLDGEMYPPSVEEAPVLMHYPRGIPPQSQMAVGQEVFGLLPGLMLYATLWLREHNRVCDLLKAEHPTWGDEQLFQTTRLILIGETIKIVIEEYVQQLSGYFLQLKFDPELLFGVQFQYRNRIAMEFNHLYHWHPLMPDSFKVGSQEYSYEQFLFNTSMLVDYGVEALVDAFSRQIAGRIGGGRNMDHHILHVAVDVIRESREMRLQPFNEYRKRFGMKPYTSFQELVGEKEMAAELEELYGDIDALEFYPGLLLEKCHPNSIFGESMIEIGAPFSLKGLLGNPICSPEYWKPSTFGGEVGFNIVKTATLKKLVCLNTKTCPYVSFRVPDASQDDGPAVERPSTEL

Row | Compound | IC50 [1] | IC50 [2] | IC50 [3] | LPS induced excessive secretion of TNF-α % of inhibition [4]
1 | CC[C@H]1OC(=O)[C@H](C)[C@@H](O[C@H]2C[C@@](C)(OC)[C@@H](O)[C@H](C)O2)[C@H](C)[C@@H](O[C@@H]2O[C@H](C)C[C@H](N(C)C)[C@H]2O)[C@](C)(O)C[C@@H](C)CN(CCCNC(=O)Cc2c(C)n(C(=O)c3ccc(Cl)cc3)c3ccc(OC)cc23)[C@H](C)[C@@H](O)[C@]1(C)O [Ex. 4] | 1 µM | > 30 µM | 1 µM | 70%
2 | CC[C@H]1OC(=O)[C@H](C)[C@@H](O[C@H]2C[C@@](C)(OC)[C@@H](O)[C@H](C)O2)[C@H](C)[C@@H](O[C@@H]2O[C@H](C)C[C@H](N(C)C)[C@H]2O)[C@](C)(O)C[C@@H](C)CN(CCCNC(=O)[C@@H](C)c2ccc(CC(C)C)cc2)[C@H](C)[C@@H](O)[C@]1(C)O [Ex. 5] | 1 µM | 10 µM | 10 µM | 66%
3 | CC[C@H]1OC(=O)[C@H](C)[C@@H](O)[C@H](C)[C@@H](O[C@@H]2O[C@H](C)C[C@H](N(C)C)[C@H]2O)[C@](C)(O)C[C@@H](C)CN(CCCNC(=O)Cc2c(C)n(C(=O)c3ccc(Cl)cc3)c3ccc(OC)cc23)[C@H](C)[C@@H](O)[C@]1(C)O [Ex. 10] | 10 µM | > 30 µM | > 30 µM | 47%
4 | CC(C)Cc1ccc([C@@H](C)C(=O)O)cc1 [S-(+)-Ibuprofen, S-(+)-ibuprofen, reference compound] | > 30 µM | – | – | –
